{"source": "patent US8192962B2", "about": "“Processes for detecting toxic substances” (Daikin Industries, Ltd., priority 2001, dated 2012)", "tested_on": "Transport facilitation protein genes", "experiment": "DNA chip mRNA expression in yeast, transport facilitation protein genes (Table 5)", "format": "cell-based, Saccharomyces cerevisiae S288C", "experimental": "Yeast (Saccharomyces cerevisiae S288C (α SUC2mal mel gap2 CUP1)) were incubated at 25° C. on YPD medium (yeast extract 1%, polypepton 2%, glucose 2%). One of toxic chemical substances was added to the cells at logarithmic growth phase, and the cells were further incubated for two hours. Cells were cultured without any chemical substance in the same condition, and were used as control. Concentrations of the chemical substances were defined to inhibit the growth of the yeast but not lead to death.\nAfter completion of the incubation, the culture was centrifuged to collect the cells. To the cells, sodium acetate buffer (50 mM sodium acetate, 10 mM EDTA, 1% SDS) was added, and the mixture was shaken at 65° C. for five minutes, followed by returning to room temperature, and obtaining the supernatant, of which the procedures were repeated two times. To the supernatant, ½ amount of a solution of phenol/chloroform was added, and the mixture was centrifuged to give a supernatant, which was added with an equal amount of chloroform, and the mixture was centrifuged to give a supernatant. To the supernatant, an equal amount of isopropanol containing 0.3 M sodium acetate was added, and the mixture was allowed to stand at room temperature for 30 minutes, after which the mixture was centrifuged to give a sediment of the whole RNAs. Seventy % ethanol was added to the sediment, and the mixture was again centrifuged to give a sediment, which was then dried and dissolved in water. mRNA was isolated from the whole RNAs as followings. In view of the fact that a poly A chain is attached to the 3′ terminus of mRNA, a polynucleotide having a poly T structure which was immobilized on the surface of latex beads was used to trap the mRNA, and then the mRNA was washed and eluted with spine column (Oligotex-dT30<Super>mRNA Purification Kit, Takara). Reverse transcription of the mRNA was conducted with a reverse transcriptase (Super Script II Reverse Transcriptase; catalogue No. 18064-014, GibcoBRL) using fluorescence-labeled nucleotides to give cDNAs that were introduced with Cy3-dUTP or Cy5-dUTP during the reverse transcription.\nThe labeled cDNAs were dissolved in TE buffer (10mM Tris-HCl/1 mM EDTA, pH8.0), and the solution was dropped on the DNA chip containing the whole genes of yeast (DNA Chip Research Inc. Japan) so that the cDNAs were hybridized on the DNA chip at 65° C. for over 12 hours. The fluoresces intensity of the DNA chip was read with a scanner, and the ratio relative to the fluorescence intensity resulting from the absence of chemical substance was estimated as the following, which is shown in Tables 1 to 9: […]"}
{"smiles": "CCCCCCCCCCCCOS(=O)(=O)[O-].[Na+]", "note": "[(18), sodium lauryl sulfate]", "values": [{"measurement": "The level of expressed mRNA in the presence of chemical substance/The level of expressed mRNA in the absence of chemical substance", "setting": "yeast gene YBL030C", "value": 1.1}, {"measurement": "The level of expressed mRNA in the presence of chemical substance/The level of expressed mRNA in the absence of chemical substance", "setting": "yeast gene YBL099W", "value": 1.2}, {"measurement": "The level of expressed mRNA in the presence of chemical substance/The level of expressed mRNA in the absence of chemical substance", "setting": "yeast gene YBR052C", "value": 3.1}, {"measurement": "The level of expressed mRNA in the presence of chemical substance/The level of expressed mRNA in the absence of chemical substance", "setting": "yeast gene YBR068C", "value": 1.3}, {"measurement": "The level of expressed mRNA in the presence of chemical substance/The level of expressed mRNA in the absence of chemical substance", "setting": "yeast gene YBR127C", "value": 1.0}, {"measurement": "The level of expressed mRNA in the presence of chemical substance/The level of expressed mRNA in the absence of chemical substance", "setting": "yeast gene YBR132C", "value": 1.3}, {"measurement": "The level of expressed mRNA in the presence of chemical substance/The level of expressed mRNA in the absence of chemical substance", "setting": "yeast gene YBR207W", "value": 1.4}, {"measurement": "The level of expressed mRNA in the presence of chemical substance/The level of expressed mRNA in the absence of chemical substance", "setting": "yeast gene YBR293W", "value": 0.9}, {"measurement": "The level of expressed mRNA in the presence of chemical substance/The level of expressed mRNA in the absence of chemical substance", "setting": "yeast gene YBR294W", "value": 0.9}, {"measurement": "The level of expressed mRNA in the presence of chemical substance/The level of expressed mRNA in the absence of chemical substance", "setting": "yeast gene YBR295W", "value": 1.2}, {"measurement": "The level of expressed mRNA in the presence of chemical substance/The level of expressed mRNA in the absence of chemical substance", "setting": "yeast gene YBR298C", "value": 0.8}, {"measurement": "The level of expressed mRNA in the presence of chemical substance/The level of expressed mRNA in the absence of chemical substance", "setting": "yeast gene YCL025C", "value": 0.6}, {"measurement": "The level of expressed mRNA in the presence of chemical substance/The level of expressed mRNA in the absence of chemical substance", "setting": "yeast gene YCL038C", "value": 1.5}, {"measurement": "The level of expressed mRNA in the presence of chemical substance/The level of expressed mRNA in the absence of chemical substance", "setting": "yeast gene YCR024C-A", "value": 1.4}, {"measurement": "The level of expressed mRNA in the presence of chemical substance/The level of expressed mRNA in the absence of chemical substance", "setting": "yeast gene YCR037C", "value": 0.9}, {"measurement": "The level of expressed mRNA in the presence of chemical substance/The level of expressed mRNA in the absence of chemical substance", "setting": "yeast gene YCR098C", "value": 1.6}, {"measurement": "The level of expressed mRNA in the presence of chemical substance/The level of expressed mRNA in the absence of chemical substance", "setting": "yeast gene YDL128W", "value": 1.0}, {"measurement": "The level of expressed mRNA in the presence of chemical substance/The level of expressed mRNA in the absence of chemical substance", "setting": "yeast gene YDL198C", "value": 1.1}, {"measurement": "The level of expressed mRNA in the presence of chemical substance/The level of expressed mRNA in the absence of chemical substance", "setting": "yeast gene YDL210W", "value": 0.9}, {"measurement": "The level of expressed mRNA in the presence of chemical substance/The level of expressed mRNA in the absence of chemical substance", "setting": "yeast gene YDL245C", "value": 1.1}, {"measurement": "The level of expressed mRNA in the presence of chemical substance/The level of expressed mRNA in the absence of chemical substance", "setting": "yeast gene YDR038C", "value": 1.5}, {"measurement": "The level of expressed mRNA in the presence of chemical substance/The level of expressed mRNA in the absence of chemical substance", "setting": "yeast gene YDR039C", "value": 1.6}, {"measurement": "The level of expressed mRNA in the presence of chemical substance/The level of expressed mRNA in the absence of chemical substance", "setting": "yeast gene YDR086C", "value": 1.9}, {"measurement": "The level of expressed mRNA in the presence of chemical substance/The level of expressed mRNA in the absence of chemical substance", "setting": "yeast gene YDR270W", "value": 0.7}, {"measurement": "The level of expressed mRNA in the presence of chemical substance/The level of expressed mRNA in the absence of chemical substance", "setting": "yeast gene YDR298C", "value": 1.6}, {"measurement": "The level of expressed mRNA in the presence of chemical substance/The level of expressed mRNA in the absence of chemical substance", "setting": "yeast gene YDR342C", "value": 2.2}, {"measurement": "The level of expressed mRNA in the presence of chemical substance/The level of expressed mRNA in the absence of chemical substance", "setting": "yeast gene YDR343C", "value": 2.3}, {"measurement": "The level of expressed mRNA in the presence of chemical substance/The level of expressed mRNA in the absence of chemical substance", "setting": "yeast gene YDR345C", "value": 1.8}, {"measurement": "The level of expressed mRNA in the presence of chemical substance/The level of expressed mRNA in the absence of chemical substance", "setting": "yeast gene YDR387C", "value": 1.1}, {"measurement": "The level of expressed mRNA in the presence of chemical substance/The level of expressed mRNA in the absence of chemical substance", "setting": "yeast gene YDR497C", "value": 1.8}, {"measurement": "The level of expressed mRNA in the presence of chemical substance/The level of expressed mRNA in the absence of chemical substance", "setting": "yeast gene YEL027W", "value": 1.4}, {"measurement": "The level of expressed mRNA in the presence of chemical substance/The level of expressed mRNA in the absence of chemical substance", "setting": "yeast gene YEL063C", "value": 0.7}, {"measurement": "The level of expressed mRNA in the presence of chemical substance/The level of expressed mRNA in the absence of chemical substance", "setting": "yeast gene YEL065W", "value": 0.6}, {"measurement": "The level of expressed mRNA in the presence of chemical substance/The level of expressed mRNA in the absence of chemical substance", "setting": "yeast gene YER053C", "value": 2.3}, {"measurement": "The level of expressed mRNA in the presence of chemical substance/The level of expressed mRNA in the absence of chemical substance", "setting": "yeast gene YFL011W", "value": 1.0}, {"measurement": "The level of expressed mRNA in the presence of chemical substance/The level of expressed mRNA in the absence of chemical substance", "setting": "yeast gene YFL041W", "value": 0.9}, {"measurement": "The level of expressed mRNA in the presence of chemical substance/The level of expressed mRNA in the absence of chemical substance", "setting": "yeast gene YFL050C", "value": 1.0}, {"measurement": "The level of expressed mRNA in the presence of chemical substance/The level of expressed mRNA in the absence of chemical substance", "setting": "yeast gene YFL054C", "value": 1.4}, {"measurement": "The level of expressed mRNA in the presence of chemical substance/The level of expressed mRNA in the absence of chemical substance", "setting": "yeast gene YGL006W", "value": 4.1}, {"measurement": "The level of expressed mRNA in the presence of chemical substance/The level of expressed mRNA in the absence of chemical substance", "setting": "yeast gene YGL008C", "value": 1.0}, {"measurement": "The level of expressed mRNA in the presence of chemical substance/The level of expressed mRNA in the absence of chemical substance", "setting": "yeast gene YGL104C", "value": 1.3}, {"measurement": "The level of expressed mRNA in the presence of chemical substance/The level of expressed mRNA in the absence of chemical substance", "setting": "yeast gene YGL167C", "value": 1.4}, {"measurement": "The level of expressed mRNA in the presence of chemical substance/The level of expressed mRNA in the absence of chemical substance", "setting": "yeast gene YGL255W", "value": 0.5}, {"measurement": "The level of expressed mRNA in the presence of chemical substance/The level of expressed mRNA in the absence of chemical substance", "setting": "yeast gene YGR055W", "value": 0.7}, {"measurement": "The level of expressed mRNA in the presence of chemical substance/The level of expressed mRNA in the absence of chemical substance", "setting": "yeast gene YGR065C", "value": 0.7}, {"measurement": "The level of expressed mRNA in the presence of chemical substance/The level of expressed mRNA in the absence of chemical substance", "setting": "yeast gene YGR082W", "value": 0.8}, {"measurement": "The level of expressed mRNA in the presence of chemical substance/The level of expressed mRNA in the absence of chemical substance", "setting": "yeast gene YGR096W", "value": 1.0}, {"measurement": "The level of expressed mRNA in the presence of chemical substance/The level of expressed mRNA in the absence of chemical substance", "setting": "yeast gene YGR138C", "value": 0.7}, {"measurement": "The level of expressed mRNA in the presence of chemical substance/The level of expressed mRNA in the absence of chemical substance", "setting": "yeast gene YGR191W", "value": 0.8}, {"measurement": "The level of expressed mRNA in the presence of chemical substance/The level of expressed mRNA in the absence of chemical substance", "setting": "yeast gene YGR197C", "value": 1.9}]}
